Test [1] relates to Mycobacterium tuberculosis. The experiment in a line: Antimicrobial activity against multidrug-resistant Mycobacterium tuberculosis isolate by alamar blue assay. It is filed as functional. In general terms: Alamar Blue is a resazurin reagent that responds to reducing activity.
The test system of test [2] is Mycobacterium tuberculosis. The experiment in a line: Antimicrobial activity against isoniazid-resistant Mycobacterium tuberculosis isolate by alamar blue assay. In kind it is functional.

The results in this text go back to ChEMBL document CHEMBL1157956, “Aegicerin, the first oleanane triterpene with wide-ranging antimycobacterial activity, isolated from Clavija procera” (J Nat Prod, 2006).

Values after ≈ are worked out from the molar mass of the structure shown.

With `CC1(C)CC[C@]23CO[C@@]4(CC[C@@H]5[C@@]6(C)CC[C@H](O)C(C)(C)[C@@H]6CC[C@@]5(C)[C@]4(C)CC2=O)[C@@H]3C1` [AEGICERIN], the MIC in test [1] and in test [2] was 1.6 µg/mL (≈ 3.5 µM) in each case.
For the compound `NNC(=O)c1ccncc1` [ISONIAZID], the MIC in test [1] is > 4 µg/mL; in test [2], 2 µg/mL (≈ 14.6 µM).
On to `CC1(C)CC[C@]23CO[C@@]4(CC[C@@H]5[C@@]6(C)CC[C@H](O)C(C)(C)[C@@H]6CC[C@@]5(C)[C@]4(C)C[C@H]2O)[C@@H]3C1` [PROTOPRIMULAGENIN A], for which the MIC in test [1] and in test [2] was 200 µg/mL (≈ 436 µM) in each case.
As to `CO[C@H]1/C=C/O[C@@]2(C)Oc3c(C)c(O)c4c(O)c(c(/C=N/N5CCN(C)CC5)c(O)c4c3C2=O)NC(=O)/C(C)=C\C=C\[C@H](C)[C@H](O)[C@@H](C)[C@@H](O)[C@@H](C)[C@H](OC(C)=O)[C@@H]1C` [RIFAMPIN], the MIC in test [1] is > 2 µg/mL; in test [2], 0.063 µg/mL (≈ 0.0766 µM).

For orientation: MIC means the smallest concentration in the dilution series that meets the test's criterion for growth inhibition. Lower therefore signals greater potency.
